In patent US8785594B2, “Glycoproteins and glycosylated cells and a method for the preparation of the same” (Glycom A/S, priority 2007, dated 2014):

Key:
Assay type in all cases: cell-based
B16.BL6 melanoma cells [1] = assay: Cell viability after 1 hour conjugation, trypan blue (Example 12); conditions: for Viability of cells harvested: 1 hour
Method: The alpha-Gal trisaccharide-carbamate probe (9) was dissolved in both PBS (without Mg^2+ and Ca^2+) (Gibco Invitrogen, Taastrup, Denmark) and HBSS (with D-glucose) (Gibco Invitrogen, Taastrup, Denmark) and passed through sterile filters (Sartorius Minisart®, 0.20 my) (Sartorius, Goettingen, Germany). Three different concentrations of the trisaccharide probe were prepared in both PBS and HBSS.
Eight small flasks (25 cm^2) (TPP, Trasadingen Switzerland) were prepared, each containing 10^6 B16.BL6 cells, and the trisaccharide probe was added. Total volume of the flasks was 4.6 mL. The cells were incubated with the conjugate for 1 hour at 37° C. and 5% CO2.
After conjugation, the supernatant from each flask was transferred to separate 10 mL tubes (TPP, Trasadingen Switzerland). The cells were harvested with Cell Dissociation Solution (2 mL per flask) (Sigma-aldrich, Saint Louis, Mo.) and transferred to the 10 mL tubes. Cells were centrifuged for 5 minutes at 300 G at 20° C. and resuspended in 0.5 mL of PBS or HBSS. Cell concentration and viability was determined by microscopic evaluation of trypan blue stained cell samples.

B16.BL6 melanoma cells [2] = assay: Staining of cell smears with FITC-labelled GS1B4 (Example 11)
Method: Five hundred mg of alpha-Gal trisaccharide-carbamate (9) was dissolved in PBS (without Mg^2+ and Ca^2+) (Gibco Invitrogen, Taastrup, Denmark) and passed through a sterile filter (Sartorius Minisart®, 0.20 my) (Sartorius, Goettingen, Germany). Eight different concentrations of conjugate were prepared. Two mL of each conjugate dilution was added to a flask with 2 mL of PBS (without Mg^2+ and Ca^2+) and 600 μl of cell suspension containing 10^6 B16.BL6 cells. The final volume of the flasks was 4.6 mL. The flasks were numbered 1 to 10. Flasks 1 and 10 contained no conjugate and served as controls. The cells were incubated with the conjugate for 3 hours and 25 minutes at 37° C. and 5% CO2.
Smears of cells from conjugation reaction 1 (non-conjugated control cells), 2, 4, 6 and 8 were incubated for 1 hour at room temperature with FITC-labelled GS1B4 diluted 1:200 in TBS. After a rinse in TBS, one drop of Fluorescent Mounting Medium (DAKO) was placed on each of the cell specimens and glass coverslips were placed on top. Binding of FITC-labelled GS1B4 to Galα1,3Gal on conjugated cells was assessed by fluorescence microscopy.

B16.BL6 melanoma cells [3] = assay: Scintillation, epitopes per cell (Example 15)
Method: Radioactive labelled and regular alpha-Gal trisaccharide-carbamate (9) probe (labeled on the cyclic carbamate carbon) was dissolved in HBSS containing D-glucose (without Mg^2+ and Ca^2+) (Gibco Invitrogen, Taastrup, Denmark) and passed through sterile filters (0.2 μm Supor® Acrodisc® 13, Gelman Sciences, Ann Arbor, Mich.). Eight different concentrations of radioactive labelled alpha-Gal trisaccharide-carbamate (9) (1 μg, 10 μg, 100 μg, 1 mg, 5 mg, 10 mg, 15 mg and 20 mg) and […] of regular “Glycom conjugate” (10 μg, 100 μg, 1 mg, 5 mg, 10 mg, 15 mg and 20 mg) were used. Twelve flasks (300 cm^2) (TPP, Trasadingen Switzerland) were prepared, each containing 10×10^6 B16.BL6 cells, for conjugation with the radioactive labelled trisaccharide probe, and 8 flasks (150 cm^2) (TPP, Trasadingen Switzerland) were prepared, each containing 5×10^6 B16.BL6 cells, for conjugation with the non-radioactive conjugate. The Glycom conjugate was added and the total volume was adjusted with HBSS containing D-glucose (without Mg^2+ and Ca^2+) so that each large flask (300 cm^2) contained a final volume of 20 mL and each medium flask (150 cm^2) contained a final volume of 10 mL. Cells were incubated with the “Glycom conjugate” for 1.5 hours at 37° C. After conjugation, the supernatant from each flask was transferred to separate 50 mL tubes (TPP, Trasadingen Switzerland). The cells were harvested with Cell Dissociation Solution (10 mL per large flask and 5 mL per medium flask) (Sigma-aldrich, Saint Louis, Mo.) and transferred to the 50 mL tubes containing the supernatant. The cells were centrifuged for 5 minutes at 300 G at 20° C. and resuspended in 5 mL of PBS (without Mg^2+ and Ca^2+). This was repeated 3 times before cell concentration and viability was determined by microscopic evaluation of trypan blue stained cell samples.
Cells incubated with radioactive labelled trisaccharide probe were centrifuged for 5 minutes at 1000 G at 20° C. The supernatant was discharged and the remaining pellets were dried. Subsequently, the pellets were dissolved in 450 μl Mili-Q H2O and 1.5 mL of scintillation fluid was added. Standards for the scintillation were made by adding 500 pCi, 0.5 pCi and 0 pCi to the 3 samples of control cells. The samples were stored at room temperature for 3 days, before the cell suspensions were transferred to scintillation vials and counted.

O=C1N[C@@H]2O[C@H](CO)[C@@H](O[C@@H]3O[C@H](CO)[C@H](O)[C@H](O[C@H]4O[C@H](CO)[C@H](O)[C@H](O)[C@H]4O)[C@H]3O)[C@H](O)[C@H]2O1 [Compound 9, alpha-Gal trisaccharide-carbamate]
Viability of cells after incubation, before harvest (B16.BL6 melanoma cells [1]; after the 1-hour incubation with the trisaccharide probe): most of the cells were viable
Viability of cells harvested (B16.BL6 melanoma cells [1]; reaction HA, 16 mg, HBSS (with D-glucose)): 33.3%
Viability of cells harvested (B16.BL6 melanoma cells [1]; reaction HB, 2 mg, HBSS (with D-glucose)): 41.7%
Viability of cells harvested (B16.BL6 melanoma cells [1]; reaction HC, 1 mg, HBSS (with D-glucose)): 41.6%
Viability of cells harvested (B16.BL6 melanoma cells [1]; reaction PA, 16 mg, PBS): 14.3%
Viability of cells harvested (B16.BL6 melanoma cells [1]; reaction PB, 2 mg, PBS): 32.0%
Viability of cells harvested (B16.BL6 melanoma cells [1]; reaction PC, 1 mg, PBS): 37.5%
Staining of cell membranes with FITC-labelled GS1B4 (B16.BL6 melanoma cells [2]; conjugation reaction 2 (200 mg)): heavily stained
Galα1,3Gal epitopes detected by binding of FITC-labelled GS1B4 on cell smears (B16.BL6 melanoma cells [2]; conjugation reactions 2, 4, 6 and 8 (200, 50, 10, 2 mg)): found on cells from all conjugation reactions tested

O=[13C]1N[C@@H]2O[C@H](CO)[C@@H](O[C@@H]3O[C@H](CO)[C@H](O)[C@H](O[C@H]4O[C@H](CO)[C@H](O)[C@H](O)[C@H]4O)[C@H]3O)[C@H](O)[C@H]2O1 [radioactive labelled conjugate]
Epitopes per cell (B16.BL6 melanoma cells [3]; 1 μg conjugate added): 1.0 × 10^6
Relation of scintillation counts to dose of conjugate (B16.BL6 melanoma cells [3]; 1 μg-20 mg): positive correlation
Epitopes per cell (B16.BL6 melanoma cells [3]; 10 μg conjugate added): 0.6 × 10^6
Epitopes per cell (B16.BL6 melanoma cells [3]; 100 μg conjugate added): 6.8 × 10^6
Epitopes per cell (B16.BL6 melanoma cells [3]; 1 mg conjugate added): 33.9 × 10^6
Epitopes per cell (B16.BL6 melanoma cells [3]; 5 mg conjugate added): 175.3 × 10^6
Epitopes per cell (B16.BL6 melanoma cells [3]; 15 mg conjugate added): 501.2 × 10^6
Epitopes per cell (B16.BL6 melanoma cells [3]; 20 mg conjugate added): 515.2 × 10^6
